Experimental data published in ChEMBL document CHEMBL1201862, “PubChem BioAssay data set” (2004).
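Dose response: 5 concentrations. Exposure: 48 h. Format: 96-well plates. Endpoint: linear interpolation; highest concentration if not reached. Abbreviation: GI50, concentration required for 50% inhibition of growth.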 Active and inactive are the calls of the source. No stated cut-off is given here; in the data, active = GI50 up to about 1.1 µM and inactive = higher.

Columns and labels:
Experiment in all cases: inhibition of tumour cell growth, NCI panel, 48 h
[1] = test system: CAKI-1
[2] = test system: CCRF-CEM
[3] = test system: HCC 2998
[4] = test system: HOP-62
[5] = test system: MOLT-4
[6] = test system: NCI-H23
[7] = test system: OVCAR-3
[8] = test system: RXF 393
[9] = test system: SF-268
[10] = test system: SF-539
[11] = test system: SK-MEL-28
[12] = test system: SNB-19
[13] = test system: SNB-75
[14] = test system: SR
[15] = test system: SW-620
[16] = test system: UACC-62
[17] = test system: UO-31

Measured: GI50

O=S(=O)(Sc1ccc(Cl)cc1)c1ccc(Cl)cc1
inactive: [1] 19.1 µM | [2] 4.23 µM | [3] 17.6 µM | [4] 15.3 µM | [5] 9.79 µM | [6] 16 µM | [7] 15.5 µM | [8] 15.7 µM | [9] 7.16 µM | [10] 14.6 µM | [11] 16.5 µM | [12] 19.3 µM | [13] 17.7 µM | [14] 10.5 µM | [15] 17.6 µM | [16] 16.6 µM | [17] 11.2 µM

BrC1=CC=C2NCCCCCC/N=C3\C=CC(Br)=CC=C3NCCCCCC/N=C\2C=C1
inactive: [1] > 25.5 µM | [2] > 25.5 µM | [3] > 25.5 µM | [4] > 25.5 µM | [5] > 25.5 µM | [6] > 25.5 µM | [7] > 25.5 µM | [8] > 25.5 µM | [9] > 25.5 µM | [10] > 25.5 µM | [11] > 25.5 µM | [12] > 25.5 µM | [13] > 25.5 µM | [15] > 25.5 µM | [16] > 25.5 µM | [17] > 25.5 µM

Cc1c(NC(=S)NC(=O)c2ccc([N+](=O)[O-])cc2)c(=O)n(-c2ccccc2)n1C
inactive: [1] > 100 µM | [2] > 100 µM | [3] > 100 µM | [4] > 100 µM | [5] > 100 µM | [6] > 100 µM | [7] > 100 µM | [8] > 100 µM | [9] > 100 µM | [10] > 100 µM | [11] > 100 µM | [12] > 100 µM | [13] > 100 µM | [14] > 100 µM | [15] > 100 µM | [16] > 100 µM | [17] > 100 µM

CCOc1ccc(/N=C/c2ccc3ccccc3n2)cc1
inactive: [1] > 100 µM | [2] 35.7 µM | [3] > 100 µM | [4] > 100 µM | [5] > 100 µM | [6] > 100 µM | [7] > 100 µM | [8] > 100 µM | [9] > 100 µM | [10] > 100 µM | [11] > 100 µM | [12] > 100 µM | [13] > 35.3 µM | [15] > 100 µM | [16] > 100 µM | [17] 61.8 µM

COc1ccccc1-n1c(NN)nc2ccc(Br)cc2c1=O
inactive: [1] 48.1 µM | [2] 23.7 µM | [3] 41.7 µM | [4] 28.8 µM | [5] 26.2 µM | [6] 28.1 µM | [7] 51.2 µM | [8] 30.4 µM | [9] 32.4 µM | [10] 27.9 µM | [11] 40.3 µM | [12] 37 µM | [13] 34.1 µM | [14] 24.9 µM | [15] 53 µM | [16] 36.6 µM | [17] 35.1 µM

CCN1CC2(C)CC[C@@H](OC)C34[C@@H]2[C@H](OC(C)=O)C2(OCO[C@@]25C[C@H](OC)C2C[C@]3(O)[C@@H]5[C@H]2O)[C@H]14
inactive: [1] > 100 µM | [3] > 100 µM | [4] 82.6 µM | [6] > 100 µM | [7] > 100 µM | [8] 15.8 µM | [9] > 100 µM | [10] > 100 µM | [11] > 100 µM | [12] > 100 µM | [13] > 100 µM | [14] > 100 µM | [15] > 100 µM | [17] > 100 µM

O=C1c2ccccc2C(=O)N1CCN(CCN1C(=O)c2ccccc2C1=O)Cc1ccccc1
inactive: [1] > 100 µM | [2] > 100 µM | [4] > 100 µM | [5] > 100 µM | [6] > 100 µM | [7] > 100 µM | [8] > 100 µM | [9] > 100 µM | [11] > 100 µM | [12] > 100 µM | [13] > 10 µM | [14] > 100 µM | [15] > 100 µM | [16] 36.7 µM | [17] > 100 µM

O=C1Nc2ccc([N+](=O)[O-])cc2/C1=N/Nc1ccc([N+](=O)[O-])cc1
inactive: [1] 20.5 µM | [2] 72.1 µM | [4] 18.3 µM | [5] 41.6 µM | [6] 20.3 µM | [7] 20.1 µM | [8] 13.7 µM | [9] 11.3 µM | [10] 16.1 µM | [11] 19.5 µM | [12] 17.6 µM | [13] 40.9 µM | [14] 43.4 µM | [15] 12.5 µM | [16] 14.6 µM | [17] 26.5 µM

CC1(C)CC23C(=O)N(c4ccccc4)C(Nc4ccccc4)=NC2=CC(C#N)=C(C#N)C3O1 (stereo not given)
inactive: [1] 23.2 µM | [2] 48.6 µM | [3] 67.1 µM | [4] 82 µM | [5] 29.3 µM | [6] 34.9 µM | [7] > 100 µM | [8] 15.2 µM | [9] > 100 µM | [10] 34.8 µM | [11] > 100 µM | [12] 89.9 µM | [13] 48.8 µM | [15] 37.7 µM | [16] 96.4 µM | [17] 18.6 µM

CCCCOC(=O)C1C2CCC(O2)C1C(=O)OCCCC (stereo not given)
inactive: [1] > 100 µM | [2] > 100 µM | [3] > 62.7 µM | [4] > 100 µM | [5] > 83.4 µM | [6] > 100 µM | [7] > 100 µM | [8] > 61.9 µM | [9] > 55.8 µM | [10] > 76.6 µM | [11] > 96.8 µM | [12] > 100 µM | [13] > 100 µM | [16] > 100 µM | [17] > 100 µM

O=C(O)C1CCc2nnc(-c3ccccc3)n21 (stereo not given)
inactive: [1] > 100 µM | [2] > 100 µM | [3] > 100 µM | [4] > 100 µM | [5] > 100 µM | [7] > 100 µM | [8] > 100 µM | [9] > 100 µM | [10] > 100 µM | [11] > 100 µM | [12] > 100 µM | [13] > 100 µM | [14] > 100 µM | [15] > 100 µM | [16] > 100 µM | [17] > 100 µM

CC1=NN(C(=O)Cc2ccccc2)C(=O)/C1=C/c1c(O)ccc2ccccc12
inactive: [1] 92.5 µM | [2] 23.3 µM | [3] > 100 µM | [4] > 100 µM | [5] 22.8 µM | [6] 61.7 µM | [7] 48.6 µM | [9] 55.5 µM | [10] 29.2 µM | [11] 40.7 µM | [12] 50.8 µM | [13] 29.6 µM | [14] 45.7 µM | [15] 39.4 µM | [17] 22.2 µM
